Data as given in paper PMC10145651, “Modulation of the 5-Lipoxygenase Pathway by Chalcogen-Containing Inhibitors of Leukotriene A4 Hydrolase” (International Journal of Molecular Sciences, 2023).
Where “and” joins values, the source holds several entries; their conditions need not be identical. Identical values can stand only once. Like-named read-outs stand apart in the source and are kept apart here.

Legend:
5-LOX = target: T1, 5-LOX (Homo sapiens, UniProt P09917); experiment: Inhibition assay with recombinant 5-LOX; format: biochemical; set-up: made in house; host or cells: Escherichia coli BL21; details: 20 µM AA, 2 mM CaCl2
T1 sequence (P09917 1-674): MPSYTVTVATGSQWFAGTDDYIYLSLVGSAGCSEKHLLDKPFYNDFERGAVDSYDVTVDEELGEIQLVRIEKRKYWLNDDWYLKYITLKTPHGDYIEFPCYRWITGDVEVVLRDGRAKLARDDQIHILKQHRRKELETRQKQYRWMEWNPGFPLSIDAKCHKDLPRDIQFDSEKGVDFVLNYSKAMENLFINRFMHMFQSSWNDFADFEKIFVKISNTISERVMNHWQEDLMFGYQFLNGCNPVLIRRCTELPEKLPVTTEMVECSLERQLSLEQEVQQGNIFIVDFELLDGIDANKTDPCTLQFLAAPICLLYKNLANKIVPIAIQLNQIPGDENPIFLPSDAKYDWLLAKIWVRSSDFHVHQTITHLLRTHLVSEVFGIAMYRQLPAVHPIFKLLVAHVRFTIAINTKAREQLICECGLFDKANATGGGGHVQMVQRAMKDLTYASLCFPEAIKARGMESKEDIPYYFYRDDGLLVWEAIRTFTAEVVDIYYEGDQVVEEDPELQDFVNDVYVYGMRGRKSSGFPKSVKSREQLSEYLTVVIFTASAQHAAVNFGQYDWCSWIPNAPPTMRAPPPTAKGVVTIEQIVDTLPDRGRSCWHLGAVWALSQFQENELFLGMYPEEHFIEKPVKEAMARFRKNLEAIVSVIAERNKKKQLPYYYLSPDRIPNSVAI
Method: Escherichia coli BL21 cells were transformed with the pT3-5-LO vector and human recombinant 5-LOX was expressed overnight at 30 °C as previously described. […] The supernatant was loaded on an ATP-agarose column and washed with 50 mM phosphate buffer (PB) containing 1 mM EDTA. Protein fractions were eluted with PB supplemented with 1 mM EDTA and 20 mM ATP. Aliquots of semi-purified 5-LOX were diluted with PBS containing 1 mM EDTA and used immediately in incubations.
Aliquots of 5-LOX (0.5 μg) were pre-incubated with test compounds or a vehicle (0.1%, v/v) for 10 min at 4 °C. […] The reaction was stopped after 10 min by addition of 1 vol of ice-cold methanol. Formed metabolites, i.e., LTB4, trans- and epi-trans-LTB4, and 5S-HETE, were analyzed with reverse-phase HPLC using a C18 RP Radial PAK column (Waters) as described previously.

LTA4H [1] = target: T2, LTA4H (Homo sapiens, UniProt P09960); experiment: Peptidase assay of LTA4H with pNa and AMC conjugates; format: biochemical; set-up: made in house; host or cells: Escherichia coli JM101; details: for AC50: activation; for fold change of specific activity with L-Arg-AMC / fold change of specific activity with L-Arg-pNa / fold change of specific activity with L-Pro-AMC: vs LTA4H without inhibitor (decrease); for fold change of specific activity with L-Ala-pNa / fold change of specific activity with L-Leu-pNa / fold change of specific activity with L-Val-pNa: vs LTA4H without inhibitor (increase); for Specific activity of LTA4H with L-Ala-pNa in the presence of inhibitor: substrate L-Ala-pNa; for Specific activity of LTA4H with L-Ala-pNa in the presence of inhibitor / Specific activity of LTA4H with L-Arg-AMC in the presence of inhibitor / Specific activity of LTA4H with L-Arg-pNa in the presence of inhibitor / Specific activity of LTA4H with L-Leu-pNa in the presence of inhibitor / Specific activity of LTA4H with L-Pro-AMC in the presence of inhibitor / Specific activity of LTA4H with L-Pro-pNa in the presence of inhibitor / Specific activity of LTA4H with L-Val-pNa in the presence of inhibitor: mean ± SEM, n = 3; for Specific activity of LTA4H with L-Arg-AMC in the presence of inhibitor: substrate L-Arg-AMC; for Specific activity of LTA4H with L-Arg-pNa in the presence of inhibitor: substrate L-Arg-pNa; for Specific activity of LTA4H with L-Leu-pNa in the presence of inhibitor: substrate L-Leu-pNa; for Specific activity of LTA4H with L-Pro-AMC in the presence of inhibitor: substrate L-Pro-AMC; for Specific activity of LTA4H with L-Pro-pNa in the presence of inhibitor: substrate L-Pro-pNa; for Specific activity of LTA4H with L-Val-pNa in the presence of inhibitor: substrate L-Val-pNa
T2 sequence (P09960 1-611): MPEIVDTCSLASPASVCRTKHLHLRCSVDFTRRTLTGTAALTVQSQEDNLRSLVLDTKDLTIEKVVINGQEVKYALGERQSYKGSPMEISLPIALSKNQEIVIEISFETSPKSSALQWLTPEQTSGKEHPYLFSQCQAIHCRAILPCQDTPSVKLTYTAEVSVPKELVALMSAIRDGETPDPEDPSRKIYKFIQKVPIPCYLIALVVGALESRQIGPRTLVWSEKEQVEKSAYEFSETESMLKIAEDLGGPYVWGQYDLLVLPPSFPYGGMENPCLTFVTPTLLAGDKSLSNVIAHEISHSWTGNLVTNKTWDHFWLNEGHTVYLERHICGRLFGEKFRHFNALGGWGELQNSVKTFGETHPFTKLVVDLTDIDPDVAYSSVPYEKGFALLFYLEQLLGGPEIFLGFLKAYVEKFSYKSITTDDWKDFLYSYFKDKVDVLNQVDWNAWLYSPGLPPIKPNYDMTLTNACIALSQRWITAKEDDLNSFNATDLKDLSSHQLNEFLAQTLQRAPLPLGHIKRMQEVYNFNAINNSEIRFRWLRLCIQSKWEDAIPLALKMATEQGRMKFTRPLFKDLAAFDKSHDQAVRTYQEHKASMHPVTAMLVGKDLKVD
Method: In addition, the aminopeptidase assay was performed with p-nitroanilide (pNa) and 7-amido-4-methylcoumarin (AMC) conjugates containing different N-terminal amino acids. Incubations were carried out with 1 μg LTA4H and 1 mM pNa substrates or 5 µM AMC substrates in 400 μL 10 mM Tris-HCl pH 7.8 containing 100 mM KCl at room temperature for 30 min. The absorbance of released pNa was measured after every 5 min at 405 nm using a TECAN Infinite M200 plate reader. The measurements with AMC derivatives were carried out using a black polystyrene 96-well plate and the fluorescence of released AMC at 360 nm/460 nm (ex/em) was recorded. Specific activities were calculated based on the standard curves of free pNA and AMC (Figure S10). The activation (AC50) or inhibition constants (IC50) were determined using the non-linear regression approach in the GraphPad Prism 9 program.

LTA4H [2] = target: T2, LTA4H; experiment: Thermal shift assay with differential scanning fluorimetry; format: binding; set-up: made in house; host or cells: Escherichia coli JM101; details: for Tm of LTA4H upon the addition of inhibitor: 0 to 200 µM inhibitor, increased from 57.5 °C without inhibitor
Method: DSF, also known as the thermal shift assay, was carried out in 25 mM Tris-HCl pH 7.8 containing 50 ng/µL LTA4H, 2X SYPRO Orange (Life Technologies, Carlsbad, CA, USA), 3% DMSO or 0–300 µM of an inhibitor. The assay was performed in a white 96-well Multiplate PCR Plate (Bio-Rad, Hercules, CA, USA) covered with the iCycler iQ Optical tape (Bio-Rad, Hercules, CA, USA). The total volume per well was 25 μL, consisting of 1 μL SYPRO Orange solution. Relative fluorescence intensities (RFU) were recorded with a C1000 Touch Thermal Cycler (Bio-Rad, Hercules, CA, USA) and a CFX-96 Real-Time System. […] The melting temperature (Tm) for each condition were obtained from the first derivative of melting curves and the affinity (Kd) and stability (Kb) values were calculated based on the Tm and concentration–response curves.

Compound | fold change of specific activity with L-Arg-AMC (LTA4H [1]; in parentheses) [x] | fold change of specific activity with L-Arg-pNa (LTA4H [1]; in parentheses) [x] | fold change of specific activity with L-Pro-AMC (LTA4H [1]; in parentheses) [x] | fold change of specific activity with L-Ala-pNa (LTA4H [1]; in parentheses) [x] | fold change of specific activity with L-Leu-pNa (LTA4H [1]; in parentheses) [x] | fold change of specific activity with L-Val-pNa (LTA4H [1]; in parentheses) [x] | Specific activity of LTA4H with L-Ala-pNa in the presence of inhibitor (LTA4H [1]) [µmol/µg/min] | Specific activity of LTA4H with L-Arg-AMC in the presence of inhibitor (LTA4H [1]) [µmol/µg/min] | Specific activity of LTA4H with L-Arg-pNa in the presence of inhibitor (LTA4H [1]) [µmol/µg/min] | Specific activity of LTA4H with L-Leu-pNa in the presence of inhibitor (LTA4H [1]) [µmol/µg/min] | Specific activity of LTA4H with L-Pro-AMC in the presence of inhibitor (LTA4H [1]) [µmol/µg/min] | Specific activity of LTA4H with L-Pro-pNa in the presence of inhibitor (LTA4H [1]) [µmol/µg/min] | Specific activity of LTA4H with L-Val-pNa in the presence of inhibitor (LTA4H [1]) [µmol/µg/min] | Tm of LTA4H upon the addition of inhibitor (LTA4H [2]) [°C] | further results
Nc1nc(-c2ccc(Cc3ccccc3)cc2)co1 [TTO, 4-(4-benzylphenyl) oxazol-2-amine] | 3 | 89 | 2 | 9 | 12 | 30 | 93.0 ± 1.7 | 9.9 ± 0.1 | 0.2 ± 0.1 | 46.9 ± 1.7 | 15.8 ± 0.2 | 2.3 ± 0.2 | 24.4 ± 0.4 | 60.7 | IC50 (5-LOX; read-out: IC50 with recombinant human 5-LOX): 33600 nM and > 30000 nM; IC50 (LTA4H [1]; 5 µM L-Arg-AMC, read-out: IC50, peptidase activity with L-Arg-AMC): 440 ± 140 nM; IC50 (LTA4H [1]; 5 µM L-Pro-AMC, read-out: IC50, peptidase activity with L-Pro-AMC): 310 ± 50 nM; IC50 (LTA4H [1]; 1 mM L-Arg-pNa, read-out: IC50, peptidase activity with L-Arg-pNa): 460 ± 50 nM; IC50 (LTA4H [1]; 1 mM L-Lys-pNa, read-out: IC50, peptidase activity with L-Lys-pNa): 890 ± 710 nM; AC50 (LTA4H [1]; 1 mM L-Ala-pNa, read-out: AC50, peptidase activity with L-Ala-pNa): 280 ± 40 nM; AC50 (LTA4H [1]; 1 mM L-Leu-pNa, read-out: AC50, peptidase activity with L-Leu-pNa): 560 ± 60 nM; AC50 (LTA4H [1]; 1 mM L-Val-pNa, read-out: AC50, peptidase activity with L-Val-pNa): 210 ± 20 nM; fold change of specific activity with L-Pro-pNa (LTA4H [1]; in parentheses, vs LTA4H without inhibitor): 1.3 x; Kd (LTA4H [2]; from Tm concentration–response curves, read-out: Kd by differential scanning fluorimetry): 510 ± 40 nM
Nc1nc(-c2ccc(Cc3ccccc3)cc2)c[se]1 [TTSe, 4-(4-benzylphenyl) selenazol-2-amine] | 3 | 94 | 2 | 9 | 10 | 30 | 88.0 ± 4.6 | 10.1 ± 0.1 | 0.20 ± 0.07 | 37.6 ± 1.1 | 15.7 ± 0.2 | 2.8 ± 0.1 | 24.6 ± 0.5 | 61.9 | IC50 (5-LOX; IC50 with recombinant human 5-LOX): 19900 nM and ~20000 nM; AC50 (LTA4H [1]; AC50, peptidase activity with L-Ala-pNa, 1 mM L-Ala-pNa): 210 ± 30 nM; AC50 (LTA4H [1]; AC50, peptidase activity with L-Leu-pNa, 1 mM L-Leu-pNa): 520 ± 50 nM; AC50 (LTA4H [1]; AC50, peptidase activity with L-Val-pNa, 1 mM L-Val-pNa): 270 ± 30 nM; IC50 (LTA4H [1]; IC50, peptidase activity with L-Arg-AMC, 5 µM L-Arg-AMC): 380 ± 90 nM; IC50 (LTA4H [1]; IC50, peptidase activity with L-Arg-pNa, 1 mM L-Arg-pNa): 490 ± 100 nM; IC50 (LTA4H [1]; IC50, peptidase activity with L-Lys-pNa, 1 mM L-Lys-pNa): 1010 ± 360 nM; IC50 (LTA4H [1]; IC50, peptidase activity with L-Pro-AMC, 5 µM L-Pro-AMC): 250 ± 20 nM; Kd (LTA4H [2]): 300 ± 20 nM
